The target in experiment [1] is T1, NaV1.8 (Rattus norvegicus, UniProt Q62968).
T1 construct: gene Scn10a; native protein in rat brain sections
The experiment in a line: radioligand saturation binding autoradiography on rat brain sections, with homologous block.

For experiment [2], the target named is T1, NaV1.8. The experiment in a line: competition autoradiography, displacement of [^11C]suzetrigine on rat brain sections. As to conditions: read-out: % reduction of binding at 2 μM.

Structures are written as SMILES.

T1 sequence (Q62968 whole entry): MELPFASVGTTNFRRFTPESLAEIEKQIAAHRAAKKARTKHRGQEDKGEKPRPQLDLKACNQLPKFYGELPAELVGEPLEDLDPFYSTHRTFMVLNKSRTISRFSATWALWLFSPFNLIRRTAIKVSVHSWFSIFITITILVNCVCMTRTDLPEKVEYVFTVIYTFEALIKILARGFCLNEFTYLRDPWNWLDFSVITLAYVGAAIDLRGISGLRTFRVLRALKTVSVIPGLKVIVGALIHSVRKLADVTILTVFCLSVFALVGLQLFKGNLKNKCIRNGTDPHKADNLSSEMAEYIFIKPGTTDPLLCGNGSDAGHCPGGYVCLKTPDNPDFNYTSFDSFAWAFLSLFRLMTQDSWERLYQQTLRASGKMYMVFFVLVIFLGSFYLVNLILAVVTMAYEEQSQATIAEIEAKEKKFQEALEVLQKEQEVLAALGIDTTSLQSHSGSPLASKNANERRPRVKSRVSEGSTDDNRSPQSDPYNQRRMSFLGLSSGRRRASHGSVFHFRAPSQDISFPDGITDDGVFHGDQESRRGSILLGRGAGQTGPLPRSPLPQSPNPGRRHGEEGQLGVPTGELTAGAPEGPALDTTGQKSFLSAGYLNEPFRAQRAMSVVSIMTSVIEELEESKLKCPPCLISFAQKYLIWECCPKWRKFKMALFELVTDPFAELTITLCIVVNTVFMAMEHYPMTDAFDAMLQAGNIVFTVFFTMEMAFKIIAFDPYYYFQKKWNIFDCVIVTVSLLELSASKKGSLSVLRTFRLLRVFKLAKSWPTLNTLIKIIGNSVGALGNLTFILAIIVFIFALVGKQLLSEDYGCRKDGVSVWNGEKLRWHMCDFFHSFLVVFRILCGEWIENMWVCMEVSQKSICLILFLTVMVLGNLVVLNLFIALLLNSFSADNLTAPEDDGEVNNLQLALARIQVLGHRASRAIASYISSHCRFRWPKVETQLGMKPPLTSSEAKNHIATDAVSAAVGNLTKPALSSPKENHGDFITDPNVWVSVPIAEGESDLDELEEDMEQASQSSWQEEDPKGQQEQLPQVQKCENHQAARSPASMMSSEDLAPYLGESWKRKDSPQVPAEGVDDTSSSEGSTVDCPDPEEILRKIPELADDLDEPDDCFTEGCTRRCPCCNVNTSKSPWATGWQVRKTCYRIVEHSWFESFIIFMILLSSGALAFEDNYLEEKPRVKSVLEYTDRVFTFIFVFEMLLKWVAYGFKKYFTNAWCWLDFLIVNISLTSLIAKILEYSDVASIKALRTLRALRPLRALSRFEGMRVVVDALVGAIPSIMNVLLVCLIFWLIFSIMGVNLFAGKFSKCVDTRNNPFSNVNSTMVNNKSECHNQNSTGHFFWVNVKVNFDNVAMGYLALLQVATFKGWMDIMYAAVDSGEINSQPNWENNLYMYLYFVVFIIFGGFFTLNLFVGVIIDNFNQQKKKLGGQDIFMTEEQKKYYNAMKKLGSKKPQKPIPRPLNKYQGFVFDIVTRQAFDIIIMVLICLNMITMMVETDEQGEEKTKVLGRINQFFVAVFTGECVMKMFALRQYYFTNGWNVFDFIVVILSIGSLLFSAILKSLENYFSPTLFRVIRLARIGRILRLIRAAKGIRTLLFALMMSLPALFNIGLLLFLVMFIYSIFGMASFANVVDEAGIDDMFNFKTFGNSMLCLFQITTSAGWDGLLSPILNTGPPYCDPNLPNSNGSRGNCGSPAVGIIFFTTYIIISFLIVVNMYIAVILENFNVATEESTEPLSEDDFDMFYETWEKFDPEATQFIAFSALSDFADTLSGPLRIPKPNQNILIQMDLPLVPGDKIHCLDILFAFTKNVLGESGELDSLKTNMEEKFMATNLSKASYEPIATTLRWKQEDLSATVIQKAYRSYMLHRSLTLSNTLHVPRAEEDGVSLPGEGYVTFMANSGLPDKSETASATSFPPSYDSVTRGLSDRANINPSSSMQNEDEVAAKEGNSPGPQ

As for `COc1c([C@H]2[C@H](C(=O)Nc3ccnc(C(N)=O)c3)O[C@@](C)(C(F)(F)F)[C@H]2C)ccc(F)c1F` [compound 2, suzetrigine], the dissociation constant (Kd) (usually a measure of binding affinity in units of concentration) at NaV1.8 [1] is 100 pM.

Turning to `COc1cc(NC(=O)c2ccc(-c3ccc(Cl)cc3)o2)cc(OC)c1` [A-803467], the inhibition at 2 µM at NaV1.8 [2] is approximately 50%.

The values are drawn from publication PMC12735773, “Toward Brain NaV1.8 Imaging with [^11C]Suzetrigine” (Pharmaceuticals, 2025).
